From patent US20240327787A1, “CULTURE MEDIUM, COATING MATRIX AND METHOD FOR EXPANDING MIDBRAIN DOPAMINERGIC PROGENITOR CELLS” (NUWACELL BIOTECHNOLOGIES CO., LTD., priority 2022, published 2024)
Structures can show the parent of a compound that is named as a salt.

Test system: imDAPs
Assay: Flow cytometry analysis of FOXA2 expression in expanded imDAPs
Type: cell-based, human
Settings: VTN-coated
Description: 1. Individualize and collect cells by either Accutase or TrypLE treatment.
2. Wash cells with 1 ml PBS and pellet cells at 250×g for 15 sec.
3. Remove supernatant, add ˜200 μl of 4% PFA, mix and fix for 10 min at RT.
4. Pellet cells at 350×g for 5 min.
5. Wash cells by 1 ml of FACS buffer and pellet cells at 350×g for 5 min.
6. Remove supernatant, add 200 μl/tube of FACS buffer/0.1% TritonX, mix for 10 min at RT.
7. Wash cells by 1 ml of FACS buffer and pellet cells at 350×g for 5 min.
8. Remove supernatant, add 200 μl/tube of primary antibody diluted in FACS buffer, mix gently, and incubate for 30 min at RT.
9. Wash cells by 1 ml of FACS buffer and pellet cells at 350×g for 5 min.
10. Remove supernatant, and add 200 μl of secondary antibody diluted in FACS buffer, mix gently, and incubate for 30 min at RT.
11. Wash cells by 1 ml of FACS buffer and pellet cells at 300×g for 5 min.
12. Remove supernatant, add 200 μl of FACS buffer, and run samples on the flow cytometry.
imDAPs were produced according to the method described in CN201910169525.0. The imDAPs (P0) were seeded on VTN-coated plates (1 μg/cm^2) at a low density of 1×10^4 cells/cm^2, and cultured in the expansion medium (50% DMEM/F12, 50% Neurobasal™ medium, 1% (v/v) Glutamax, 2% (v/v) B27 (50×), 0.2 μM LDN193189, 3 μM CHIR99021, 100 ng/mL FGF8b) with either 5 μM Blebbistatin or 10 μM Y27632. Medium was replaced every 3rd day. At Day 6, cells were collected for FACS analysis.
imDAPs were produced according to the method described in CN201910169525.0. The imDAPs (P0) were seeded on DLL4-coated (1 μg/cm^2), VTN-coated (1 μg/cm^2) and DLL4/VTN-coated (1 μg/cm^2 for each) plates at a low density of 1×10^4 cells/cm^2 respectively, and cultured in the expansion medium in the absence or presence of 5 μM SB431542. Medium was replaced every 3rd day until reaching 100% confluence (6 days) for cell collection. The typical cell morphology on day 4 was recorded (FIG. 4A). The cell number of each group was counted by Vi-cell cytometer (FIG. 4B). The cells of each group were stained with Foxa2-PE antibody (BD, #561589), the percentage of Foxa2+ imDAPs were analyzed by flow cytometry (FIG. 4C). The expansion medium used in this example contained the following components: 50% DMEM/F12, 50% Neurobasal™ medium, 1% (v/v) Glutamax, 1% (v/v) B27, 50 μg/ml ascorbic acid, 0.2 μM LDN193189, 100 ng/ml FGF8b, 3 μM CHIR99021 and 10 µM Y27632.
imDAPs were produced according to the method described in CN201910169525.0. The imDAPs (P0) were seeded on DLL4/VTN-coated (1 μg/cm^2 for each) plates at a low density of 1×10^4 cells/cm^2, and cultured in the expansion medium (EM1, EM2, EM3, EM4). Medium was replaced every 3rd day until reaching 100% confluence (6 days) for cell collection. EM1 used in Example 9 contained the following components: 50% DMEM/F12, 50% Neurobasal™ medium, 1% (v/v) Glutamax, 1% (v/v) B27 (50×), 50 μg/ml ascorbic acid, 3 μM CHIR99021, 5 μM SB431542 and 10 μM Y27632. EM2 used in Example 9 contained the following components: 50% DMEM/F12, 50% Neurobasal™ medium, 1% (v/v) Glutamax, 1% (v/v) B27 (50×), 50 μg/ml ascorbic acid, 0.2 μM LDN193189, 3 μM CHIR99021, 5 μM SB431542 and 10 μM Y27632. EM3 used in Example 9 contained the following components: 50% DMEM/F12, 50% Neurobasal™ medium, 1% (v/v) Glutamax, 1% (v/v) B27 (50×), 50 μg/mL ascorbic acid, 0.2 μM LDN193189, 100 ng/ml FGF8b, 3 μM CHIR99021, 5 μM SB431542 and 10 μM Y27632. […]

C[C@@H](N)[C@H]1CC[C@H](C(=O)Nc2ccncc2)CC1 [Y27632, (R)-(+)-trans-4-(1-aminoethyl)-N-(4-pyridyl) cyclohexanecarboxamide dihydrochloride]
percentage of Foxa2-expressing cells (FIG. 2) (10 μM Y27632 vs 5 μM Blebbistatin in expansion medium, 1×10^4 cells/cm^2, Day 6): capable of improving the percentage of Foxa2-expressing cells than Blebbistatin
percentage of Foxa2-expressing cells during passages (expansion medium with 10 μM Y27632): still decreased during passages
